For one assay, the target named is T1, S. pneumoniae FabK (Streptococcus pneumoniae, UniProt Q9FBC5, T318A).
T1 construct: made in house
Nature of the assay: FabK enoyl-ACP reductase assay (NADH oxidation at 340 nm). As to conditions: for inhibition of FabK (in words): 25 uM crotonoyl ACP, 50 uM NADH, 1.25 nM enzyme. In kind it is biochemical. As to the method:
FabK catalyses the reduction of enoyl-ACPs with the concommitant oxidation of NADH. Crotonoyl-ACP can be prepared as described below. The reduction of crotonoyl-ACP to butyryl-ACP can be monitored by following the change in absorbance at 340 nm as NADH is oxidised.
Assays were carried out in Costar 3696 half-area plates in a final assay volume of 150 ul on a Spectramax platereader. Substrates, NADH and crotonoyl ACP, were incubated with FabK enzyme in 100 mM N-[2-acetamido]-2 irminodiacetic acid (ADA), pH 6.5, 100 mM NH4Cl, 4% glycerol at 30° C. and the reaction monitored at 340 nm. This assaying can also be performed using crotonyl CoA, NADPH or an NADH analogue as a substrate.
Using the above assay, compounds can be tested for inhibition of FabK. 30 ul of a candidate compounds is added to a well of the plate. 30 ul of a 250 uM stock of NADH is then added to the well. 60 ul of a 67.5 uM stock of Crotonoyl ACP is added to the well. The plate is incubated at 30° C. for 5 min. 30 ul of a 6.25 nM stock of enzyme is then added to the well (also preincubated at 30° C.) to initiate the reaction. The plate is then monitored at A340 nm for 30 min at 30° C. Positive controls are reactions without compound. Negative controls are reactions without enzyme and without compound. Final concentrations in the assay mixture are 25 uM crotonoyl ACP, 50 uM NADH, 1.25 nM enzyme.

In a further assay the test system is FabI. Description: FabI assay, enzyme source not stated. In kind it is biochemical. As to the method:
(§1) FabI catalyses the reduction of enoyl-ACPs with the concommitant oxidation of NAD(P)H. Crotonoyl-ACP can be prepared as described in patent applications numbered PCT/US00/12104 and EP1997000306506. The reduction of enoyl-ACPs can be monitored by following the change in absorbance at 340 nm as NADH is oxidised. Enoyl ACPs (eg crotonoyl-ACP) can be replaced by enoyl-CoAs (eg crotonoyl-CoA)
(§2) Assays were carried out in Costar 3696 half-area plates in a final assay volume of 150 ul on a Spectramax platereader. Substrates, NADH and crotonoyl ACP, were incubated with FabI enzyme in 100 mM N-[2-acetamido]-2 iminodiacetic acid (ADA), pH 6.5, 4% glycerol at 30° C. and the reaction monitored at 340 nm. This assaying can also be performed using crotonyl CoA, NADPH or an NADH analogue as a substrate, or using a substrate suitable for FabK, such as those described above.
(§3) Using the above assay, compounds can be tested for inhibition of FabI. 30 ul of a candidate compounds is added to a well of the plate. 30 ul of a 250 uM stock of NADH is then added to the well. 60 ul of a 67.5 uM stock of Crotonoyl ACP is added to the well. The plate is incubated at 30° C. for 5 min. 30 ul of a 6.25 nM stock of enzyme is then added to the well (also preincubated at 30° C.) to initiate the reaction. The plate is then monitored at A340 nm for 30 min at 30° C. Positive controls are reactions without compound. […]

A further assay addresses S. aureus FabI (Staphylococcus aureus, UniProt Q6GI75). Nature of the assay: FabI assay, S. aureus enzyme. In kind it is biochemical. As to the method:
as §1, §2, §3

Another assay addresses E. coli FabI (Escherichia coli, UniProt P0AEK4). Nature of the assay: FabI assay, E. coli enzyme. In kind it is biochemical. As to the method: as §1, §2, §3
The subject of the next assay is S. aureus Oxford. Description: Antibacterial MIC. In kind it is cell-based. The conditions noted are these: Staphylococcus aureus, read-out: Antibacterial MIC.
For the next assay, the system named is S. aureus WCUH29. Nature of the assay: Antibacterial MIC. The conditions noted are these: Staphylococcus aureus. In kind it is cell-based.
The subject of a further assay is E. faecalis 1. Description: Antibacterial MIC. The conditions noted are these: Enterococcus faecalis, 1, read-out: Antibacterial MIC. In kind it is cell-based.
The subject of a further assay is E. faecalis 7. Nature of the assay: Antibacterial MIC. In kind it is cell-based.
The next assay concerns H. influenzae Q1. Nature of the assay: Antibacterial MIC. In kind it is cell-based. As to conditions: Haemophilus influenzae.
In another assay the test system is H. influenzae NEMC1. Nature of the assay: Antibacterial MIC. In kind it is cell-based. The conditions noted are these: Haemophilus influenzae.
The subject of another assay is M. catarrhalis. Nature of the assay: Antibacterial MIC. As to conditions: Moraxella catarrhalis, read-out: Antibacterial MIC. In kind it is cell-based.
A further assay has as its system S. pneumoniae 1629. Nature of the assay: Antibacterial MIC. In kind it is cell-based.
For the next assay, the system named is S. pneumoniae N1387. Nature of the assay: Antibacterial MIC. In kind it is cell-based. As to conditions: Streptococcus pneumoniae.
The subject of a further assay is S. pneumoniae ERY2. Nature of the assay: Antibacterial MIC. In kind it is cell-based. The conditions noted are these: Streptococcus pneumoniae, ERY2, read-out: Antibacterial MIC.
The test system of another assay is E. coli AcrAB^−. Nature of the assay: Antibacterial MIC. The conditions noted are these: Escherichia coli, read-out: Antibacterial MIC. In kind it is cell-based.

From patent US7048926B2, “Methods of agonizing and antagonizing FabK” (priority 2000, dated 2006) come the findings set out here.

Converted amounts (≈) assume the structure as drawn. Where two headings read alike, the source gives them in different places. Some results are limits rather than exact numbers.

T1 sequence (Q9FBC5 whole entry T318A): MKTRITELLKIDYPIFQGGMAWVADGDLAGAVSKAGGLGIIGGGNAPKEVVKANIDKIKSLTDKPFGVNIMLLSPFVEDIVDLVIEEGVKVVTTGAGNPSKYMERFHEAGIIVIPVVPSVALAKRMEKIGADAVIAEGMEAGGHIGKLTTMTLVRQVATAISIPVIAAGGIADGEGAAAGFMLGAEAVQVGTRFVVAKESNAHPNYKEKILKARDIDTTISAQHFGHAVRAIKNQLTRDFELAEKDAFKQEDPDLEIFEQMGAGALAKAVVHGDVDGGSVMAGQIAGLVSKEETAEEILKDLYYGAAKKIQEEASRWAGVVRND
Sequence of S. aureus FabI (Q6GI75 whole entry): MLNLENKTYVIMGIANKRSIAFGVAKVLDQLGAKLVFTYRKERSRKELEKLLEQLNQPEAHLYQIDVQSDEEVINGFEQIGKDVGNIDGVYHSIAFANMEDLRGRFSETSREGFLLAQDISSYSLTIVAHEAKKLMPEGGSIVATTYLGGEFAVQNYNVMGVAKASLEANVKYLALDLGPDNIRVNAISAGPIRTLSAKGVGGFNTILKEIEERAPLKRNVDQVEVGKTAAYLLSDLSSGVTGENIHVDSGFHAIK
Sequence of E. coli FabI (P0AEK4 whole entry): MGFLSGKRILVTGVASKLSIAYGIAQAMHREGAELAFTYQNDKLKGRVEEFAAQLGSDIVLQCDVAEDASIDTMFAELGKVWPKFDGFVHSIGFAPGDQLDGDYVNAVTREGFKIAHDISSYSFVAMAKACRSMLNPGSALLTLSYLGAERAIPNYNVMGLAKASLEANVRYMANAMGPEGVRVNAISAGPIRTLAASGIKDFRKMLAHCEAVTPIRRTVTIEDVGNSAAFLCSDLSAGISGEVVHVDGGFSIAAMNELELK

As for `Cc1[nH]c2ccccc2c1CN(C)C(=O)/C=C/c1cnc2c(c1)CCC(=O)N2` [Formula II], the “inhibition of FabK (in words)” value on S. pneumoniae FabK is on record as “inhibit”. Also, the “inhibition of FabI (in words)” value with FabI was “inhibit”.

Turning to `CN(Cc1cn(C)c2ccccc12)C(=O)/C=C/c1cnc2c(c1)CCC(=O)N2` [Formula I], on S. pneumoniae FabK, the “inhibition of FabK (in words)” value was “inhibit”. Also, in the assay on FabI, the “inhibition of FabI (in words)” value is listed as “inhibit”.

Turning to `Cl.N` [NH4^+], the “activation of FabK reaction over the reaction with no monovalent cations” value on S. pneumoniae FabK (NH4^+ at 100 mM) is listed as “about 300 fold”.

As to `CN(Cc1cn(C)c2ccccc12)C(=O)/C=C/c1cnc2c(c1)CCC(=O)N2` [SB-611113], the concentration for half-maximal inhibition (IC50) (commonly the concentration that inhibits the measured activity by half) is 5.7 µM at S. pneumoniae FabK, 0.1 µM at S. aureus FabI and less than 0.06 µM against E. coli FabI. Moreover, the MIC was not above 0.06 µg/mL in the assay on S. aureus Oxford; not above 0.06 µg/mL in the assay on S. aureus WCUH29 (WCUH29, read-out: Antibacterial MIC); 16 µg/mL (≈ 42.7 µM) in the assay on E. faecalis 1; 16 µg/mL (≈ 42.7 µM) with E. faecalis 7 (Enterococcus faecalis, 7, read-out: Antibacterial MIC); 16 µg/mL (≈ 42.7 µM) in the assay on H. influenzae Q1 (Q1, read-out: Antibacterial MIC); 32 µg/mL (≈ 85.5 µM) in the assay with H. influenzae NEMC1 (NEMC1, read-out: Antibacterial MIC). Also, the MIC in the assay with M. catarrhalis is not above 0.06 µg/mL; with S. pneumoniae 1629 (Streptococcus pneumoniae, 1629, read-out: Antibacterial MIC) it was 8 µg/mL (≈ 21.4 µM); with S. pneumoniae N1387 (N1387, read-out: Antibacterial MIC) it was 16 µg/mL (≈ 42.7 µM); in the assay on S. pneumoniae ERY2, 8 µg/mL (≈ 21.4 µM); in the assay with E. coli AcrAB^− it was 8 µg/mL (≈ 21.4 µM).

In turn, `Cc1[nH]c2ccccc2c1CN(C)C(=O)/C=C/c1cnc2c(c1)CCC(=O)N2` [SB-641197] had an IC50 on S. pneumoniae FabK of 5.2 µM. Further, the MIC in the assay with S. aureus Oxford is not above 0.06 µg/mL; with S. aureus WCUH29 (S. aureus WCUH29, read-out: Antibacterial MIC) it was not above 0.06 µg/mL; in the assay with E. faecalis 1, 16 µg/mL (≈ 42.7 µM); in the assay with E. faecalis 7 (Enterococcus faecalis, E. faecalis 7, read-out: Antibacterial MIC), 16 µg/mL (≈ 42.7 µM); with H. influenzae Q1 (H. influenzae Q1, read-out: Antibacterial MIC), 1 µg/mL (≈ 2.67 µM); in the assay with H. influenzae NEMC1 (H. influenzae NEMC1, read-out: Antibacterial MIC) it was 2 µg/mL (≈ 5.34 µM). For the same molecule, the MIC in the assay on M. catarrhalis (M. catarrhalis) is not above 0.06 µg/mL; in the assay with S. pneumoniae 1629 (Streptococcus pneumoniae, S. pneumoniae 1629, read-out: Antibacterial MIC), 8 µg/mL (≈ 21.4 µM); in the assay with S. pneumoniae N1387 (S. pneumoniae N1387, read-out: Antibacterial MIC), 16 µg/mL (≈ 42.7 µM); in the assay on S. pneumoniae ERY2, 8 µg/mL (≈ 21.4 µM); in the assay on E. coli AcrAB^−, 0.5 µg/mL (≈ 1.34 µM).
